Assay results from US20260207720A1, “COMPOSITIONS AND METHODS FOR TREATING FUNGAL INFECTIONS” (MUCPharm Pty Ltd, priority 2022, published 2026).
Converted amounts (≈) assume the structure as drawn. Where two headings read alike, the source gives them in different places.

Key:
Format in all cases: cell-based
Rhizopus microsporus = assay: Chequerboard broth microdilution antifungal susceptibility testing (MIC)
Description: (§1) Unless otherwise described, fungal cultures were grown on potato dextrose agar plates at 35° C. until mature (appearance of conidia) and used to prepare suspensions in sterile water. […] These suspensions were then added in equal volume to solutions containing the candidate species described above and incubated at 35° C. for 24 hr. Plates were then analysed for fungal growth inhibition and MIC values determined. […] [MICA (combined)/MICA]+[MICB (combined)/MICB] MICA (combined) is the MIC of drug A when both drugs (i.e. drug A and drug B) are present and MICA is the MIC of drug A used in isolation. Similarly, MICB (combined) is the MIC of drug B when both drugs are present and MICB is the MIC of drug B used in isolation.

Rhizopus arrhizus = assay: as above
Description: as §1

[1] = system: Candida Krusei (ATCC strain 6258); assay: Broth dilution susceptibility test, MIC and percent growth (Example 6)
Description: (§2) A. Preparation of inoculum: • 1. Candida glabrata was grown on Sabouraud dextrose agar (SDA) at 37° C. for 24-48 hrs. • 2. Following this, 5 colonies of 1 mm diameter were picked and suspended in 5 mL sterile saline (0.9% saline) and vortexed for 15 seconds. • 3. Working suspension is prepared as a 1:100 dilution from stock suspension with RPMI 1640 culture medium. • 4. The cell density is adjusted with a spectrophotometer to the transmittance produced by a 0.5 McFarland standard (0.08 to 0.1) OD at 625 nm wavelength.
(§3) • 1. For Bromelain, a stock concentration of 1 mg/ml Bromelain solution was prepared in RPMI media and diluted to test concentrations of 62.4, 31.2, 15.6 and 7.8 μg/ml in RPMI 1640 media. • 2. Acetylcysteine stock concentration is 200 mg/ml, diluted to 40, 20, 10, and 5 mg/ml concentrations in RPMI 1640 medium. • 3. These concentrations are prepared at 2× of the required concentrations in the final assay plate.
(§4) Antifungal stock concentrations are as follows— • 1. Amphotericin B, Stock concentration: 250 μg/ml in water. • 2. Posaconazole, Original concentration: 300 mg in 16.7 ml, Working stock concentration: 1 mg/ml in DMSO. • 3. Fluconazole, Original concentration: 100 mg in 50 ml, Working stock concentration: 1 mg/ml in DMSO. • 4. The final concentration was prepared in RPMI 1640 media and concentrations range was 0.01-0.5 μg/mL for amphotericin B, 0.01-2 μg/mL for posaconazole and 0.01-64 μg/mL for fluconazole. • 5. These concentrations were prepared at 2× of the required concentrations in the final assay plate.
(§5) • 1. Wells of the 96-well plates were inoculated with appropriate concentrations and volumes of drugs. • 2. Sterility control and growth controls are included in each plate. • 3. Each 96-well plate (except the control wells) contains 100 μL of double strength (twice the final antifungal drug) concentrations. • 4. 100 μL of the fungal suspension is added to 96-well plates (except the sterility control wells). • 5. The growth control wells contained 100 μL of sterile drug-free medium and 100 μL of inoculum suspension, while the sterility control wells contained 200 μl of sterile drug-free medium. • 6. Plates are then incubated at 37° C. and read at 625,430, and 530 nm wavelengths. • 7. Data from 24 hours and absorbance at 625 nm were used for analysis.
These experiments were conducted to determine the effect of BromAc alone and in combination with existing antifungal drugs against Candida Krusei (ATCC strain 6258).
The method used in these experiments is essentially the same as that described above in Example 5.

[2] = system: Candida glabrata (clinical isolate); assay: Broth dilution susceptibility test, MIC and percent growth (Example 5); conditions: Nakaseomyces glabratus; measured at 90% growth inhibition; 24 hours, 625 nm
Description: These experiments were conducted to determine the effect of BromAc alone and in combination with existing antifungal drugs against Candida glabrata (clinical isolate).
as §2, §3, §4, §5

Scedosporium = assay: Susceptibility assay of antifungals with BromAc (Example 4); conditions: antifungal in combination with BromAc (5 mg/ml Acetylcysteine+12.5 μg/ml Bromelain) vs alone
Description: (§6) The in vitro antifungal properties of Bromelain, Acetylcysteine, BromAc, Amphotericin B, Isavuconazole, Fluconazole and Posaconazole were determined using a broth microdilution method in round bottom 96 well plates in accordance with standard procedures defined by the Clinical Laboratory Standards Institute (CLSI).
(§7) Unless otherwise described, fungal cultures were grown on potato dextrose agar plates at 35° C. until mature (appearance of conidia) and used to prepare suspensions in sterile water. Suspensions were diluted in RPMI 1:60. These suspensions were then added in equal volume to solutions containing the candidate species described above and incubated at 35° C. for 24 hr. Plates were then analysed for fungal growth inhibition and MIC values determined.
(§8) BromAc (5 mg/ml Acetylcysteine+12.5 μg/ml Bromelain) was used in combination with Amphotericin B, Isavuconazole, Posaconazole and Fluconazole. The MIC values of these four antifungal agents against the fungus described below were calculated and compared with their corresponding MIC values in the presence of BromAc, using the standard susceptibility assays described above.
(§9) The fungal strains set out in Table 2, all of which were sourced from a range of clinical isolates from Australian hospitals, were used in these experiments to gain a further understanding of the efficacy of BromAc in combination with Amphotericin B, Isavuconazole, Posaconazole and Fluconazole.

Candida auris = assay: as above
Description: as §6, §7, §8, §9

Cryptococcus = assay: as above
Description: as §6, §7, §8, §9

Candida tropicalis = assay: as above
Description: as §6, §7, §8, §9

Cunninghamella = assay: as above; conditions: antifungal in combination with BromAc (5 mg/ml Acetylcysteine+12.5 μg/ml Bromelain) vs alone
Description: as §6, §7, §8, §9

[3] = antifungal in combination with BromAc (5 mg/ml Acetylcysteine+12.5 μg/ml Bromelain) vs alone

## C[C@@H]1[C@H](O)[C@@H](C)/C=C/C=C/C=C/C=C/C=C/C=C/C=C/[C@H](O[C@@H]2O[C@H](C)[C@@H](O)[C@H](N)[C@@H]2O)C[C@@H]2O[C@](O)(C[C@@H](O)C[C@@H](O)[C@H](O)CC[C@@H](O)C[C@@H](O)CC(=O)O[C@H]1C)C[C@H](O)[C@H]2C(=O)O [Amphotericin B]
Rhizopus microsporus; Rhizopus microspores, antifungal with BromAc
  isolates with more than 10× increase: 9 of 10
Rhizopus microsporus; Rhizopus microsporus, Rhizopus microsporus (80-21-006-5340), drug alone, read-out: MIC
  MIC: 0.5 µg/mL (≈ 0.541 µM)
Rhizopus microsporus; Rhizopus microsporus, eight R. microsporus strains, read-out: MIC, average over the strains
  MIC: 0.7 µg/mL (≈ 0.758 µM)
Rhizopus microsporus; Rhizopus microsporus, isolate R. microsporus 1, BromAc at constant concentration where combined, read-out: MIC
  MIC: 1 µg/mL
Rhizopus microsporus; Rhizopus microsporus, isolate R. microsporus 2, BromAc at constant concentration where combined, read-out: MIC
  MIC: 1 µg/mL
Rhizopus microsporus; Rhizopus microsporus, isolate R. microsporus 3, BromAc at constant concentration where combined, read-out: MIC
  MIC: 0.25 µg/mL
Rhizopus microsporus; Rhizopus microsporus, isolate R. microsporus 4, BromAc at constant concentration where combined, read-out: MIC
  MIC: 0.5 µg/mL
Rhizopus microsporus; Rhizopus microsporus, isolate R. microsporus 5, BromAc at constant concentration where combined, read-out: MIC
  MIC: 0.5 µg/mL
Rhizopus microsporus; Rhizopus microsporus, isolate R. microsporus 6, BromAc at constant concentration where combined, read-out: MIC
  MIC: 0.5 µg/mL
Rhizopus microsporus; Rhizopus microsporus, isolate R. microsporus 7, BromAc at constant concentration where combined, read-out: MIC
  MIC: 0.5 µg/mL
Rhizopus microsporus; Rhizopus microsporus, isolate R. microsporus 8, BromAc at constant concentration where combined, read-out: MIC
  MIC: 0.5 µg/mL
Rhizopus microsporus; Rhizopus microsporus, antifungal in combination with BromAc (5 mg/ml Acetylcysteine+12.5 μg/ml Bromelain) vs alone
  Observed inhibitory effect: Strong (Strong = 5-10x (or greater) inhibitory effect)
Rhizopus microsporus; alone at 0.25 mg/L
  effect on fungal culture (in words): not effective
Rhizopus microsporus; eight R. microsporus strains
  MICs, range over the strains: 0.5 to 1 µg/mL
Rhizopus arrhizus; Rhizopus Arrhizus, antifungal with BromAc
  isolates with 10× increase: 8 of 8
Rhizopus arrhizus; Rhizopus arrhizus, Rhizopus arrhizus (80-21-015-4777), drug alone, read-out: MIC
  MIC: 0.5 µg/mL (≈ 0.541 µM)
Rhizopus arrhizus; Rhizopus arrhizus, eight R. arrhizus strains, read-out: MIC, average over the strains
  MIC: 0.6 µg/mL (≈ 0.649 µM)
Rhizopus arrhizus; Rhizopus arrhizus, isolate R. archizus 1, BromAc at constant concentration where combined, read-out: MIC
  MIC: 1 µg/mL
Rhizopus arrhizus; Rhizopus arrhizus, isolate R. archizus 2, BromAc at constant concentration where combined, read-out: MIC
  MIC: 0.5 µg/mL
Rhizopus arrhizus; Rhizopus arrhizus, isolate R. archizus 3, BromAc at constant concentration where combined, read-out: MIC
  MIC: 1 µg/mL
Rhizopus arrhizus; Rhizopus arrhizus, isolate R. archizus 8, BromAc at constant concentration where combined, read-out: MIC
  MIC: 0.5 µg/mL
Rhizopus arrhizus; Rhizopus arrhizus, isolate R. arrhizus 4, BromAc at constant concentration where combined, read-out: MIC
  MIC: 0.5 µg/mL
Rhizopus arrhizus; Rhizopus arrhizus, isolate R. arrhizus 5, BromAc at constant concentration where combined, read-out: MIC
  MIC: 0.5 µg/mL
Rhizopus arrhizus; Rhizopus arrhizus, isolate R. arrhizus 6, BromAc at constant concentration where combined, read-out: MIC
  MIC: 1 µg/mL
Rhizopus arrhizus; Rhizopus arrhizus, isolate R. arrhizus 7, BromAc at constant concentration where combined, read-out: MIC
  MIC: 0.5 µg/mL
Rhizopus arrhizus; Rhizopus arrhizus, antifungal in combination with BromAc (5 mg/ml Acetylcysteine+12.5 μg/ml Bromelain) vs alone
  Observed inhibitory effect: Strong (Strong = 5-10x (or greater) inhibitory effect)
Rhizopus arrhizus; alone at 0.25 mg/L
  effect on fungal culture (in words): not effective
Rhizopus arrhizus; combined with 25 μg/mL of bromelain
  Amphotericin concentration at which complete inhibition was seen: 0.3 mg/L
Rhizopus arrhizus; eight R. arrhizus strains
  MICs, range over the strains: 0.25 to 1 µg/mL
[1]; Pichia kudriavzevii, ATCC6258, close to 90% inhibition
  MIC: 1 µg/mL
[1]; below the MIC (Posaconazole 0.03 μg/ml)
  effect at lower doses / concentrations compared to GC (in words): significant inhibition
[2]
  MIC: 1 µg/mL
Scedosporium
  Observed inhibitory effect: No effect
Candida auris; Candida auris, antifungal with BromAc
  isolates with more than 10× increase: 2 of 5
Candida auris; Candida aurus, antifungal in combination with BromAc (5 mg/ml Acetylcysteine+12.5 μg/ml Bromelain) vs alone
  Observed inhibitory effect: Moderate (Moderate = 1-5x inhibitory effect)
Cryptococcus; [3]
  Observed inhibitory effect: Strong (Strong = 5-10x (or greater) inhibitory effect)
Cryptococcus; antifungal with BromAc
  isolates with more than 10× increase: 5 of 5
Candida tropicalis; [3]
  Observed inhibitory effect: Strong (Strong = 5-10x (or greater) inhibitory effect)
Candida tropicalis; antifungal with BromAc
  isolates with more than a 10× increase in sensitivity: 4 of 5
Cunninghamella
  Observed inhibitory effect: Possible
